# Data published in patent publication US9695155B2, “Herbicidal substituted pyrimidinyloxy benzene compounds” (E. I. DU PONT DE NEMOURS AND COMPANY, priority 2013, dated 2017).
# Assays:
# [1] = test system: lambsquarters; assay: Test C preemergence; assay type: in vivo, Chenopodium album; conditions: for Lambsquarters plant response rating: preemergence; for Plant response rating, Lambsquarters: Preemergence, 31 g ai/ha, scale 0 to 100, 0 no effect, 100 complete control
# Summary of the method: (§1)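 Rated visually on 0–100 (100 = complete control) after 13–15 days under glass. Treatments went onto freshly seeded loam/sand soil or onto emerged plants at the 1- to 4-leaf stage, using a surfactant-containing solvent formulation.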
# [2] = test system: ragweed; assay: Test A preemergence; assay type: in vivo, Ambrosia elatior; conditions: for Plant response rating, Ragweed: 125 g ai/ha, 0 to 100 scale where 0 is no effect and 100 is complete control; for Ragweed plant response rating: 500 g ai/ha, 0 to 100 scale, 0 no effect, 100 complete control, approx. 10 days
# Summary of the method: (§2)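 Injury scores run from 0, no effect, to 100, complete control, judged by eye against untreated plants roughly 10 days after treatment. Chemicals carried a surfactant in a non-phytotoxic solvent and went onto loam–sand soil preemergence or onto one- to two-leaf seedlings postemergence.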
# [3] = test system: giant foxtail; assay: Test C preemergence; assay type: in vivo, Setaria faberii; conditions: for Foxtail, Giant plant response rating: preemergence; for Plant response rating, Foxtail, Giant: Preemergence, 31 g ai/ha, scale 0 to 100, 0 no effect, 100 complete control
# Summary of the method: as §1
# [4] = test system: kochia; assay: Test A postemergence; assay type: in vivo, Kochia scoparia; conditions: 0 to 100 scale where 0 is no effect and 100 is complete control
# Summary of the method: as §2
# [5] = test system: oilseed rape; assay: Test C preemergence; assay type: in vivo, Brassica napus; conditions: for Oilseed Rape plant response rating: preemergence; for Plant response rating, Oilseed Rape: Preemergence, 31 g ai/ha, scale 0 to 100, 0 no effect, 100 complete control
# Summary of the method: as §1
# [6] = test system: galium; assay: Test A postemergence; assay type: in vivo, Galium aparine; conditions: 0 to 100 scale where 0 is no effect and 100 is complete control
# Summary of the method: as §2
# [7] = test system: ragweed; assay: Test C preemergence; assay type: in vivo, Ambrosia elatior; conditions: for Ragweed plant response rating: preemergence; for Plant response rating, Ragweed: Preemergence, 31 g ai/ha, scale 0 to 100, 0 no effect, 100 complete control
# Summary of the method: as §1
# [8] = test system: soybean; assay: Test C preemergence; assay type: in vivo, Glycine max; conditions: for Soybean plant response rating: preemergence; for Plant response rating, Soybean: Preemergence, 31 g ai/ha, scale 0 to 100, 0 no effect, 100 complete control
# Summary of the method: as §1
# [9] = test system: barnyardgrass; assay: Test C preemergence; assay type: in vivo, Echinochloa crus-galli; conditions: for Barnyardgrass plant response rating: preemergence; for Plant response rating, Barnyardgrass: Preemergence, 31 g ai/ha, scale 0 to 100, 0 no effect, 100 complete control
# Summary of the method: as §1
# [10] = test system: pigweed; assay: Test C preemergence; assay type: in vivo, Amaranthus retroflexus; conditions: for Pigweed plant response rating: preemergence; for Plant response rating, Pigweed: Preemergence, 31 g ai/ha, scale 0 to 100, 0 no effect, 100 complete control
# Summary of the method: as §1
# [11] = test system: yellow nutsedge; assay: Test C preemergence; assay type: in vivo, Cyperus esculentus; conditions: for Nutsedge, Yellow plant response rating: preemergence; for Plant response rating, Nutsedge, Yellow: Preemergence, 31 g ai/ha, scale 0 to 100, 0 no effect, 100 complete control
# Summary of the method: as §1
# [12] = test system: wheat, winter; assay: Test C preemergence; assay type: in vivo, Triticum aestivum; conditions: for Wheat plant response rating: preemergence; for Plant response rating, Wheat: Preemergence, 31 g ai/ha, scale 0 to 100, 0 no effect, 100 complete control
# Summary of the method: as §1
# [13] = test system: velvetleaf; assay: Test C preemergence; assay type: in vivo, Abutilon theophrasti; conditions: for Velvetleaf plant response rating: preemergence; for Plant response rating, Velvetleaf: Preemergence, 31 g ai/ha, scale 0 to 100, 0 no effect, 100 complete control
# Summary of the method: as §1
# [14] = test system: ragweed; assay: Test A postemergence; assay type: in vivo, Ambrosia elatior; conditions: 0 to 100 scale where 0 is no effect and 100 is complete control
# Summary of the method: as §2
# [15] = test system: waterhemp; assay: Test C preemergence; assay type: in vivo, Amaranthus rudis; conditions: for Waterhemp plant response rating: preemergence; for Plant response rating, Waterhemp: Preemergence, 31 g ai/ha, scale 0 to 100, 0 no effect, 100 complete control
# Summary of the method: as §1
# [16] = test system: large (Lg) crabgrass; assay: Test C preemergence; assay type: in vivo, Digitaria sanguinalis; conditions: for Crabgrass, Large plant response rating: preemergence; for Plant response rating, Crabgrass, Large: Preemergence, 31 g ai/ha, scale 0 to 100, 0 no effect, 100 complete control
# Summary of the method: as §1
# [17] = test system: blackgrass; assay: Test C preemergence; assay type: in vivo, Alopecurus myosuroides; conditions: for Blackgrass plant response rating: preemergence; for Plant response rating, Blackgrass: Preemergence, 31 g ai/ha, scale 0 to 100, 0 no effect, 100 complete control
# Summary of the method: as §1
# [18] = test system: blackgrass; assay: Test A postemergence; assay type: in vivo, Alopecurus myosuroides
# Summary of the method: as §2
# [19] = 16 g ai/ha, scale 0 to 100 (0 no effect, 100 complete control)
# [20] = 62 g ai/ha, scale 0 (no effect) to 100 (complete control)
# [21] = 125 g ai/ha, scale 0 (no effect) to 100 (complete control)
# [22] = 125 g ai/ha, 0 to 100 scale where 0 is no effect and 100 is complete control
structure (smiles),measurement,setting,value
Cc1cnc(Oc2cccc(C#N)c2-n2cc(C#N)cn2)nc1 [Compound 90],Lambsquarters plant response rating,[1]; [19],100
same,Lambsquarters plant response rating,[1]; [20],100
same,Lambsquarters plant response rating,[1]; [21],100
same,"Plant response rating, Lambsquarters",[1],98
same,"Plant response rating, Ragweed",[2],50
same,Ragweed plant response rating,[2],80
same,"Foxtail, Giant plant response rating",[3]; [19],5
same,"Foxtail, Giant plant response rating",[3]; [20],75
same,"Foxtail, Giant plant response rating",[3]; [21],100
same,"Plant response rating, Foxtail, Giant",[3],45
same,"Plant response rating, Kochia",[4]; 125 g ai/ha,90
same,"Plant response rating, Kochia",[4]; 500 g ai/ha,100
same,Oilseed Rape plant response rating,[5]; [19],60
same,Oilseed Rape plant response rating,[5]; [20],98
same,Oilseed Rape plant response rating,[5]; [21],100
same,"Plant response rating, Oilseed Rape",[5],80
same,"Plant response rating, Galium",[6]; 125 g ai/ha,90
same,"Plant response rating, Galium",[6]; 500 g ai/ha,100
same,Ragweed plant response rating,[7]; [19],10
same,Ragweed plant response rating,[7]; [20],100
same,Ragweed plant response rating,[7]; [21],95
same,"Plant response rating, Ragweed",[7],60
same,Soybean plant response rating,[8]; [19],25
same,Soybean plant response rating,[8]; [20],65
same,Soybean plant response rating,[8]; [21],95
same,"Plant response rating, Soybean",[8],35
same,Barnyardgrass plant response rating,[9]; [19],0
same,Barnyardgrass plant response rating,[9]; [20],75
same,Barnyardgrass plant response rating,[9]; [21],85
same,"Plant response rating, Barnyardgrass",[9],5
same,Pigweed plant response rating,[10]; [19],40
same,Pigweed plant response rating,[10]; [20],98
same,Pigweed plant response rating,[10]; [21],100
same,"Plant response rating, Pigweed",[10],85
same,"Nutsedge, Yellow plant response rating",[11]; [19],35
same,"Nutsedge, Yellow plant response rating",[11]; [20],5
same,"Nutsedge, Yellow plant response rating",[11]; [21],60
same,"Plant response rating, Nutsedge, Yellow",[11],0
same,Wheat plant response rating,[12]; [19],0
same,Wheat plant response rating,[12]; [20],0
same,Wheat plant response rating,[12]; [21],0
same,"Plant response rating, Wheat",[12],0
same,Velvetleaf plant response rating,[13]; [19],35
same,Velvetleaf plant response rating,[13]; [20],98
same,Velvetleaf plant response rating,[13]; [21],100
same,"Plant response rating, Velvetleaf",[13],65
same,"Plant response rating, Ragweed",[14]; 125 g ai/ha,60
same,"Plant response rating, Ragweed",[14]; 500 g ai/ha,80
same,Waterhemp plant response rating,[15]; [19],85
same,Waterhemp plant response rating,[15]; [20],100
same,Waterhemp plant response rating,[15]; [21],100
same,"Plant response rating, Waterhemp",[15],100
same,"Crabgrass, Large plant response rating",[16]; [19],25
same,"Crabgrass, Large plant response rating",[16]; [20],98
same,"Crabgrass, Large plant response rating",[16]; [21],100
same,"Plant response rating, Crabgrass, Large",[16],98
same,Blackgrass plant response rating,[17]; [19],5
same,Blackgrass plant response rating,[17]; [20],30
same,Blackgrass plant response rating,[17]; [21],85
same,"Plant response rating, Blackgrass",[17],5
same,"Plant response rating, Blackgrass",[18]; [22],50
same,"Plant response rating, Blackgrass","[18]; 500 g ai/ha, 0 to 100 scale where 0 is no effect and 100 is complete control",70
CC(C)c1cnn(-c2c(C#N)cccc2Oc2ncc(Cl)cn2)c1 [Compound 85],Lambsquarters plant response rating,[1]; [19],65
same,Lambsquarters plant response rating,[1]; [20],100
same,Lambsquarters plant response rating,[1]; [21],100
same,"Plant response rating, Lambsquarters",[1],100
same,"Plant response rating, Ragweed",[2],40
same,Ragweed plant response rating,[2],60
same,"Foxtail, Giant plant response rating",[3]; [19],20
same,"Foxtail, Giant plant response rating",[3]; [20],90
same,"Foxtail, Giant plant response rating",[3]; [21],100
same,"Plant response rating, Foxtail, Giant",[3],35
same,"Plant response rating, Kochia",[4]; 125 g ai/ha,70
same,"Plant response rating, Kochia",[4]; 500 g ai/ha,100
same,Oilseed Rape plant response rating,[5]; [19],0
same,Oilseed Rape plant response rating,[5]; [20],90
same,Oilseed Rape plant response rating,[5]; [21],98
same,"Plant response rating, Oilseed Rape",[5],40
same,"Plant response rating, Galium",[6]; 125 g ai/ha,90
same,"Plant response rating, Galium",[6]; 500 g ai/ha,100
same,Ragweed plant response rating,[7]; [19],0
same,Ragweed plant response rating,[7]; [20],50
same,Ragweed plant response rating,[7]; [21],65
same,"Plant response rating, Ragweed",[7],0
same,Soybean plant response rating,[8]; [19],0
same,Soybean plant response rating,[8]; [20],40
same,Soybean plant response rating,[8]; [21],60
same,"Plant response rating, Soybean",[8],15
same,Barnyardgrass plant response rating,[9]; [19],0
same,Barnyardgrass plant response rating,[9]; [20],75
same,Barnyardgrass plant response rating,[9]; [21],95
same,"Plant response rating, Barnyardgrass",[9],15
same,Pigweed plant response rating,[10]; [19],50
same,Pigweed plant response rating,[10]; [20],100
same,Pigweed plant response rating,[10]; [21],100
same,"Plant response rating, Pigweed",[10],40
same,"Nutsedge, Yellow plant response rating",[11]; [19],0
same,"Nutsedge, Yellow plant response rating",[11]; [20],5
same,"Nutsedge, Yellow plant response rating",[11]; [21],20
same,"Plant response rating, Nutsedge, Yellow",[11],0
same,Wheat plant response rating,[12]; [19],0
same,Wheat plant response rating,[12]; [20],0
same,Wheat plant response rating,[12]; [21],5
same,"Plant response rating, Wheat",[12],0
same,Velvetleaf plant response rating,[13]; [19],35
same,Velvetleaf plant response rating,[13]; [20],100
same,Velvetleaf plant response rating,[13]; [21],100
same,"Plant response rating, Velvetleaf",[13],80
same,"Plant response rating, Ragweed",[14]; 125 g ai/ha,50
same,"Plant response rating, Ragweed",[14]; 500 g ai/ha,60
same,Waterhemp plant response rating,[15]; [19],55
same,Waterhemp plant response rating,[15]; [20],100
same,Waterhemp plant response rating,[15]; [21],100
same,"Plant response rating, Waterhemp",[15],85
same,"Crabgrass, Large plant response rating",[16]; [19],65
same,"Crabgrass, Large plant response rating",[16]; [20],100
same,"Crabgrass, Large plant response rating",[16]; [21],100
same,"Plant response rating, Crabgrass, Large",[16],90
same,Blackgrass plant response rating,[17]; [19],0
same,Blackgrass plant response rating,[17]; [20],10
same,Blackgrass plant response rating,[17]; [21],90
same,"Plant response rating, Blackgrass",[17],5
same,"Plant response rating, Blackgrass",[18]; [22],70
same,"Plant response rating, Blackgrass","[18]; 500 g ai/ha, 0 to 100 scale, 0 no effect, 100 complete control",80
